Laboratory results published in ChEMBL document CHEMBL4706692, “CC-90009: A Cereblon E3 Ligase Modulating Drug That Promotes Selective Degradation of GSPT1 for the Treatment of Acute Myeloid Leukemia” (J Med Chem, 2021).
Activity calls are given as the source filed them. The calls are words filed in the database; no cut-off is given here.

Assays:
[1] = MRT in CD1 mouse at 2 mg/kg, iv administered as bolus dose; type: ADME, organism-based; conditions: in vivo
HL-60 [2] = experiment: Antitumor activity against human HL-60 cells in xenografted model assessed as reduction in CD33+/CD45+ in bone marrow at 5 mg/kg, BID administered for 5 consecutive days relative to control; type: functional; conditions: HL-60, 120 h, time 5 day
[3] = biological target: T1, Protein cereblon/Eukaryotic peptide chain release factor GTP-binding subunit ERF3A (Homo sapiens) (UniProt Q96SW2+P15170); experiment: Protac activity at CRBN/GSPT1 in human KG-1 cells assessed as GSPT1 degradation by measuring accumulation of CHOP at 200 uM incubated for 4 hrs by western blot analysis; type: cell-based
T1 sequence (P15170 whole entry, looked up): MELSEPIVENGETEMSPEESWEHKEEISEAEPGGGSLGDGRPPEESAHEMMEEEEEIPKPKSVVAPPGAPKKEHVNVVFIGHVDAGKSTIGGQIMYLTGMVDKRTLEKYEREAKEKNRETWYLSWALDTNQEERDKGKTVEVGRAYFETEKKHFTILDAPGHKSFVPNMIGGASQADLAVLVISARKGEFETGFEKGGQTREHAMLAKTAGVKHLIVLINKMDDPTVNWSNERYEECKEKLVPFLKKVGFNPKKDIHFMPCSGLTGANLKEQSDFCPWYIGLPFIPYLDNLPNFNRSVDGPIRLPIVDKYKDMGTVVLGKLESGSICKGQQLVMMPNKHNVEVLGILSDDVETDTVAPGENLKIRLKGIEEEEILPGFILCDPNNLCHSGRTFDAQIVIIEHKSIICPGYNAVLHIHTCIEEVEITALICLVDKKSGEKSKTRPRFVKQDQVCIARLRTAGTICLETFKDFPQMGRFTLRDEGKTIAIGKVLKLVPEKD
T1 sequence (Q96SW2 whole entry, looked up): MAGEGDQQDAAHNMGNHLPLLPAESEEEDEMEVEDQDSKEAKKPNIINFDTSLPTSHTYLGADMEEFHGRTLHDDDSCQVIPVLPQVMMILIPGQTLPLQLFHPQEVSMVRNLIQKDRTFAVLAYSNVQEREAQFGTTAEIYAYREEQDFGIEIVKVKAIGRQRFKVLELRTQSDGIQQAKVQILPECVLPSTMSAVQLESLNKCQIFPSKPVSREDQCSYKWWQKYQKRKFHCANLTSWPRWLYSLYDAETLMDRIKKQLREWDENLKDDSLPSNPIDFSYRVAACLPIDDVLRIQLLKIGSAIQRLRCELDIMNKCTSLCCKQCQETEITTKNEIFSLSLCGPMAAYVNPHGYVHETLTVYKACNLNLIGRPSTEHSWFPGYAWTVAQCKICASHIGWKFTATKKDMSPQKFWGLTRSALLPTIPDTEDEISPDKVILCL

[4] = biological target: T1, Protein cereblon/Eukaryotic peptide chain release factor GTP-binding subunit ERF3A (Homo sapiens); experiment: Protac activity at CRBN/GSPT1 in CD3+ T cells derived from patients assessed as reduction of GSPT1 levels at 2.4 mg, iv administered for 5 days by flow cytometry analysis relative to control; type: organism-based; set-up: scale not given: the % may be the effect or the level left; conditions: CD3-positive T cell, time 5.0 day
[5] = Clearance in cynomolgus monkey at 1 mg/kg, iv administered as bolus dose; type: ADME, organism-based, Macaca fascicularis; conditions: in vivo
[6] = Clearance in CD1 mouse at 2 mg/kg, iv administered as bolus dose; type: ADME, organism-based; conditions: in vivo
[7] = Volume of distribution at steady state in CD1 mouse at 2 mg/kg, iv administered as bolus dose; type: ADME, organism-based; conditions: in vivo, read-out: Vdss
[8] = biological target: T1, Protein cereblon/Eukaryotic peptide chain release factor GTP-binding subunit ERF3A (Homo sapiens); experiment: Protac activity at CRBN/GSPT1 in human DF-15 cells assessed as maximum GSPT1 degradation incubated for 20 hrs by hunter detection reagent based luminescence assay relative to control; type: cell-based; conditions: DF15
[9] = biological target: Muscarinic acetylcholine receptor M1 (Homo sapiens) (UniProt P11229); experiment: Inhibition of human muscarinic M1 receptor at 10 uM relative to control
[10] = Volume of distribution in iv dosed acute myeloid leukemia patient; type: ADME, organism-based; conditions: human, in vivo
[11] = biological target: T1, Protein cereblon/Eukaryotic peptide chain release factor GTP-binding subunit ERF3A (Homo sapiens); experiment: Protac activity at CRBN/GSPT1 in human KG-1 cells assessed as GSPT1 degradation at 1 uM incubated for 4 hrs in presence of proteasome inhibitor bortezomib by western blot analysis; type: cell-based
HL-60 [12] = experiment: Antitumor activity against human HL-60 cells in xenografted model assessed as reduction in CD33+/CD45+ in bone marrow at 2.5 mg/kg, BID administered for 10 consecutive days relative to control; type: functional; conditions: HL-60, 240 h, time 10 day
[13] = biological target: Muscarinic acetylcholine receptor M2 (Homo sapiens) (UniProt P08172); experiment: Inhibition of human muscarinic M2 receptor at 10 uM relative to control
Sequence of Muscarinic acetylcholine receptor M2 (Homo sapiens) (P08172 whole entry): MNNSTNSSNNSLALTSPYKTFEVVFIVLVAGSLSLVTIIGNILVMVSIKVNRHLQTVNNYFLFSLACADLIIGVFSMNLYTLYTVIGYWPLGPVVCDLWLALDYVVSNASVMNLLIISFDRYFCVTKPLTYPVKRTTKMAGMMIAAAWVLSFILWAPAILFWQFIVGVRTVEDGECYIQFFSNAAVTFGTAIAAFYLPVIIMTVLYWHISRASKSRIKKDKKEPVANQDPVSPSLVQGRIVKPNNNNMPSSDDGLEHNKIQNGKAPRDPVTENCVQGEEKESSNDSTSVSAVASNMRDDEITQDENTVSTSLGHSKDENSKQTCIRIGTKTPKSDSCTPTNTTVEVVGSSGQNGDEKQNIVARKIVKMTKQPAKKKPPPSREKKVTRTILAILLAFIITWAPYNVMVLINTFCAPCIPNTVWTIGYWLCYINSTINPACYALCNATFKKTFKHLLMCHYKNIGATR

[14] = biological target: Multidrug and toxin extrusion protein 2 (Homo sapiens, UniProt Q86VL8); experiment: Inhibition of MATE2 (unknown origin) at upto 3 uM
[15] = biological target: Protein cereblon/Zinc finger protein Aiolos (Homo sapiens, UniProt Q96SW2+Q9UKT9); experiment: Protac activity at CRBN/IKZF3 (unknown origin) assessed as IKZF3 degradation; type: protein assay
Sequence of Protein cereblon/Zinc finger protein Aiolos (Q96SW2 whole entry): as the sequence (Q96SW2 whole entry, looked up) above
Sequence of Protein cereblon/Zinc finger protein Aiolos (Q9UKT9 whole entry): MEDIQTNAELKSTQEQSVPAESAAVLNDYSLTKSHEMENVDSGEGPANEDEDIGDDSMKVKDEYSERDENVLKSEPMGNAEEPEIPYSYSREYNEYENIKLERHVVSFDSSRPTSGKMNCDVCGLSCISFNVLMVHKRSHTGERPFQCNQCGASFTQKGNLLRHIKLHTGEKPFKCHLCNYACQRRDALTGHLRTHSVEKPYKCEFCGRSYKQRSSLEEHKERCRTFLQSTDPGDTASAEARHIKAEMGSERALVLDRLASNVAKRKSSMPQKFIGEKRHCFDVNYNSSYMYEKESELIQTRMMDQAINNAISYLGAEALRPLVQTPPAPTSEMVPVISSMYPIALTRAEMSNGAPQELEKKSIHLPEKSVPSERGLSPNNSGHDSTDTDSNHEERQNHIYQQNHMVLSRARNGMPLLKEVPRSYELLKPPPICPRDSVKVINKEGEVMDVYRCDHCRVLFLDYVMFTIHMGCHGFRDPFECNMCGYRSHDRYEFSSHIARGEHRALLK

[16] = Clearance in CD-IGS rat at 2 mg/kg, iv administered as bolus dose; type: ADME, organism-based; conditions: in vivo
[17] = Terminal half life in iv dosed acute myeloid leukemia patient; type: ADME, organism-based; conditions: human, in vivo, read-out: beta t1/2 (converted)
[18] = biological target: T1, Protein cereblon/Eukaryotic peptide chain release factor GTP-binding subunit ERF3A (Homo sapiens); experiment: Protac activity at CRBN/GSPT1 in CD3+ T cells derived from patients assessed as reduction of GSPT1 levels in peripheral blood blast administered intravenously for 5 days by flow cytometry analysis; type: cell-based; conditions: CD3-positive T cell, time 5.0 day
[19] = biological target: T1, Protein cereblon/Eukaryotic peptide chain release factor GTP-binding subunit ERF3A (Homo sapiens); experiment: Protac activity at CRBN/GSPT1 in human KG-1 cells assessed as GSPT1 degradation at 1 uM incubated for 4 hrs in presence of neddylation inhibitor MLN4924 by western blot analysis; type: cell-based
Homo sapiens = species on record: Homo sapiens; experiment: Inhibition of P-gp (unknown origin) at upto 3 uM; conditions: dose microM <=3
[20] = biological target: T1, Protein cereblon/Eukaryotic peptide chain release factor GTP-binding subunit ERF3A (Homo sapiens); experiment: Protac activity at CRBN/GSPT1 in human DF-15 cells assessed as in depth GSPT1 degradation incubated for 20 hrs by hunter detection reagent based luminescence assay relative to control; type: cell-based; conditions: DF15
[21] = biological target: Voltage-gated inwardly rectifying potassium channel KCNH2 (Homo sapiens, UniProt Q12809); experiment: Inhibition of human ERG
[22] = MRT in cynomolgus monkey at 1 mg/kg, iv administered as bolus dose; type: ADME, organism-based, Macaca fascicularis; conditions: in vivo
CYP2C9 = CYP2C9 (Homo sapiens, UniProt P11712); experiment: Inhibition of CYP2C9 (unknown origin) at 2.5 uM relative to control; type: ADME
[23] = biological target: Organic anion transporter 3 (Homo sapiens, UniProt Q8TCC7); experiment: Inhibition of OAT3 (unknown origin) at upto 3 uM
[24] = Volume of distribution at steady state in cynomolgus monkey at 1 mg/kg, iv administered as bolus dose; type: ADME, organism-based, Macaca fascicularis; conditions: in vivo, read-out: Vdss
[25] = Volume of distribution at steady state in CD-IGS rat at 2 mg/kg, iv administered as bolus dose; type: ADME, organism-based; conditions: in vivo, read-out: Vdss
[26] = Toxicity in cynomolgus monkey assessed as effect on cardiovascular system; set-up: species or system Macaca fascicularis; conditions: in vivo
[27] = biological target: Solute carrier family 22 member 2 (Homo sapiens, UniProt O15244); experiment: Inhibition of OCT2 (unknown origin) at upto 3 uM
Sequence of Solute carrier family 22 member 2 (O15244 whole entry): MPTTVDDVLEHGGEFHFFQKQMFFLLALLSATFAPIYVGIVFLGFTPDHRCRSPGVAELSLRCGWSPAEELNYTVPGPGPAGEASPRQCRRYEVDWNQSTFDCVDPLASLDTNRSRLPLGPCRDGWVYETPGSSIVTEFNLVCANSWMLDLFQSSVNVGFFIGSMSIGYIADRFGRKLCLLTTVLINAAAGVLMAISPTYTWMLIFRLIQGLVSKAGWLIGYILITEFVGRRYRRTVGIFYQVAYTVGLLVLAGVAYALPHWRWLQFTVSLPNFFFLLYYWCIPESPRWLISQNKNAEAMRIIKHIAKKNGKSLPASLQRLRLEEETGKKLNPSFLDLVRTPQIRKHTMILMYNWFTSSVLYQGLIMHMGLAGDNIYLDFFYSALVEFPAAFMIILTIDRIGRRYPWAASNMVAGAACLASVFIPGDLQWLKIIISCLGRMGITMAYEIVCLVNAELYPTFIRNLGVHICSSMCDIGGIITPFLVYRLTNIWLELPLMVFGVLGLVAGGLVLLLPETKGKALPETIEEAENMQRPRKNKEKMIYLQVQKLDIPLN

[28] = biological target: Solute carrier organic anion transporter family member 1B3 (Homo sapiens, UniProt Q9NPD5); experiment: Inhibition of OATP1B3 (unknown origin) at upto 3 uM
Sequence of Solute carrier organic anion transporter family member 1B3 (Q9NPD5 whole entry): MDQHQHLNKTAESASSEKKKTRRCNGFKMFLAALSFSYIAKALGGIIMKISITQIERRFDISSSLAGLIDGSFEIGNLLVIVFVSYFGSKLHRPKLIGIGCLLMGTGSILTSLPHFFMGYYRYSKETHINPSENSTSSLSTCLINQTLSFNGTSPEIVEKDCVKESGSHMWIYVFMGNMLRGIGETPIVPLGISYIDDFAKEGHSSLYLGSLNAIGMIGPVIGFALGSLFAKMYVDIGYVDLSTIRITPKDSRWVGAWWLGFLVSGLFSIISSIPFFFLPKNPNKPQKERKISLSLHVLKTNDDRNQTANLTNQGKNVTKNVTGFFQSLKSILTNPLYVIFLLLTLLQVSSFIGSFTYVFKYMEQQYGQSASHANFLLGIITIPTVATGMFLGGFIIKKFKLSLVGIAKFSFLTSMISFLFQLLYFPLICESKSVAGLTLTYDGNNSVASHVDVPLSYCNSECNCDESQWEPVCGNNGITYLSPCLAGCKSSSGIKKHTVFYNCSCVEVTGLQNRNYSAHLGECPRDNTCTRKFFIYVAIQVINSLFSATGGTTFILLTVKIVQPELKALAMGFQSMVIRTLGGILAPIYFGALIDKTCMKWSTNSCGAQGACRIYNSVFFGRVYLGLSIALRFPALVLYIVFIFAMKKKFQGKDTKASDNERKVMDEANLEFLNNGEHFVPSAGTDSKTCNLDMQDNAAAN

[29] = Total clearance in iv dosed acute myeloid leukemia patient; type: ADME, organism-based; conditions: human, in vivo
[30] = biological target: T1, Protein cereblon/Eukaryotic peptide chain release factor GTP-binding subunit ERF3A (Homo sapiens); experiment: Protac activity at CRBN/GSPT1 in human KG-1 cells assessed as GSPT1 degradation by measuring accumulation of ATF4 at 200 uM incubated for 4 hrs by western blot analysis; type: cell-based
[31] = MRT in CD-IGS rat at 2 mg/kg, iv administered as bolus dose; type: ADME, organism-based; conditions: in vivo
[32] = biological target: Solute carrier organic anion transporter family member 1B1 (Homo sapiens, UniProt Q9Y6L6); experiment: Inhibition of OATP1B1 (unknown origin) at upto 3 uM
[33] = biological target: T1, Protein cereblon/Eukaryotic peptide chain release factor GTP-binding subunit ERF3A (Homo sapiens); experiment: Protac activity at CRBN/GSPT1 in CD3+ T cells derived from patients assessed as reduction of GSPT1 levels in T cells administered intravenously for 5 days by flow cytometry analysis; conditions: CD3-positive T cell, time 5.0 day
[34] = biological target: Broad substrate specificity ATP-binding cassette transporter ABCG2 (Homo sapiens, UniProt Q9UNQ0); experiment: Inhibition of BCRP (unknown origin) at upto 3 uM
Cereblon/Ikaros = Cereblon/Ikaros (Homo sapiens, UniProt Q13422+Q96SW2); experiment: Protac activity at CRBN/IKZF1 (unknown origin) assessed as IKZF1 degradation; type: protein-complex assay
Sequence of Cereblon/Ikaros (Q96SW2 whole entry): as the sequence (Q96SW2 whole entry, looked up) above
Sequence of Cereblon/Ikaros (Q13422 whole entry): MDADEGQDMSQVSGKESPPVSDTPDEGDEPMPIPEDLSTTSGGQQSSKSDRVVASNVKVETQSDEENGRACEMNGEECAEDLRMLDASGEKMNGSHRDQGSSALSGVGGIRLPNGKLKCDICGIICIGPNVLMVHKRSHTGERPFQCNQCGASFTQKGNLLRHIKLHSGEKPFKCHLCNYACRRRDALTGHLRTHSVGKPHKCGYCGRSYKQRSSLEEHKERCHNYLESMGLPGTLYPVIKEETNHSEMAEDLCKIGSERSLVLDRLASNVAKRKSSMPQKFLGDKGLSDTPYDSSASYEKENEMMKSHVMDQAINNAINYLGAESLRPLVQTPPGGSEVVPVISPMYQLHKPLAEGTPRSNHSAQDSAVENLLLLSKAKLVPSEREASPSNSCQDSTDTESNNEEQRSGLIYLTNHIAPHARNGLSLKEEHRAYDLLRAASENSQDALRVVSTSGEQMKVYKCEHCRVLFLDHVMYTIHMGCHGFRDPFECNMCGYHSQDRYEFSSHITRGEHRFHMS

[35] = biological target: T1, Protein cereblon/Eukaryotic peptide chain release factor GTP-binding subunit ERF3A (Homo sapiens); experiment: Protac activity at CRBN/GSPT1 in human KG-1 cells assessed as GSPT1 degradation at 1 uM incubated for 4 hrs by western blot analysis; type: cell-based
[36] = biological target: T1, Protein cereblon/Eukaryotic peptide chain release factor GTP-binding subunit ERF3A (Homo sapiens); experiment: Protac activity at CRBN/GSPT1 in human DF15 cells assessed as in depth GSPT1 degradation incubated for 4 hrs by hunter detection reagent based luminescence assay; type: cell-based
[37] = biological target: ATP-binding cassette sub-family C member 2 (Homo sapiens, UniProt Q92887); experiment: Inhibition of MRP2 (unknown origin) at upto 3 uM
[38] = biological target: T1, Protein cereblon/Eukaryotic peptide chain release factor GTP-binding subunit ERF3A (Homo sapiens); experiment: Protac activity at CRBN/GSPT1 in human DF-15 cells assessed as GSPT1 degradation at 0.2 to 3 uM incubated for 4 to 6 hrs by Incell-hunter detection reagent based luminescence assay relative to control; type: cell-based; conditions: DF15, dose 0.2-3 µM, time 4-6 hrs
Bone marrow cell = experiment: Antiproliferative activity in bone marrow cells derived from AML patients assessed as cell growth inhibition; type: functional, cell-based; conditions: Homo sapiens
[39] = biological target: Solute carrier family 22 member 6 (Homo sapiens, UniProt Q4U2R8); experiment: Inhibition of OAT1 (unknown origin) at upto 3 uM
Sequence of Solute carrier family 22 member 6 (Q4U2R8 whole entry): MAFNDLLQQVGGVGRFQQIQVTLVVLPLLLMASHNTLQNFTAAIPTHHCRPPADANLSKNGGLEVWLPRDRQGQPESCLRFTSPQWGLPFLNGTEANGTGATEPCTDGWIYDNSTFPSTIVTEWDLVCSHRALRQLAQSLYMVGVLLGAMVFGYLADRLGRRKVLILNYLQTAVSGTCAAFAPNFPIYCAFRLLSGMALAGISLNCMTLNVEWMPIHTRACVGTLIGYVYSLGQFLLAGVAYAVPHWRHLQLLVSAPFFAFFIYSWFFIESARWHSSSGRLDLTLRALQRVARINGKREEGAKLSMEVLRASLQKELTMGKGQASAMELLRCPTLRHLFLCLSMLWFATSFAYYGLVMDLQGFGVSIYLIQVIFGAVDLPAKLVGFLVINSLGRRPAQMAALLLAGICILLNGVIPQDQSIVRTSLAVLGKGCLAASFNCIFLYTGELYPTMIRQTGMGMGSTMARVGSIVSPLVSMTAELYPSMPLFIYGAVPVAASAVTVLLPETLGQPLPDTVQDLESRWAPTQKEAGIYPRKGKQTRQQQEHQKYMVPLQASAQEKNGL

[40] = biological target: T1, Protein cereblon/Eukaryotic peptide chain release factor GTP-binding subunit ERF3A (Homo sapiens); experiment: Protac activity at CRBN/GSPT1 in human KG-1 cells assessed as GSPT1 degradation by measuring accumulation of ATF3 at 200 uM incubated for 4 hrs by western blot analysis; type: cell-based
Cytochrome P450 2C19 = Cytochrome P450 2C19 (Homo sapiens, UniProt P33261); experiment: Inhibition of CYP2C19 (unknown origin); type: ADME
Sequence of Cytochrome P450 2C19 (P33261 whole entry): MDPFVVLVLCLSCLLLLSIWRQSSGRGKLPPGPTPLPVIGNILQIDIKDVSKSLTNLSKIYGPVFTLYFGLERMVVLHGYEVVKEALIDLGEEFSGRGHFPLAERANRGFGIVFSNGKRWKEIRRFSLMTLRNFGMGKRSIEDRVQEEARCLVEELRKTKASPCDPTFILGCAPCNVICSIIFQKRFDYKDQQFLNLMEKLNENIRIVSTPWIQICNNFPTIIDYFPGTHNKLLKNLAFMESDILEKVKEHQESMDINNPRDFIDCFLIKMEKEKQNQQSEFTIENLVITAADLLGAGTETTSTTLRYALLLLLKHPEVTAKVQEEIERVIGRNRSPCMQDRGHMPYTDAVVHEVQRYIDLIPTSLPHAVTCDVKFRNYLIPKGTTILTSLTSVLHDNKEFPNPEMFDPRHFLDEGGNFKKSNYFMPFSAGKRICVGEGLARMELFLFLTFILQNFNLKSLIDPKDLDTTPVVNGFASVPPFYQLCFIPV

[41] = biological target: T1, Protein cereblon/Eukaryotic peptide chain release factor GTP-binding subunit ERF3A (Homo sapiens); experiment: Protac activity at CRBN/GSPT1 in human DF15 cells assessed as maximum GSPT1 degradation incubated for 4 hrs by hunter detection reagent based luminescence assay relative to control; type: cell-based
[42] = biological target: T1, Protein cereblon/Eukaryotic peptide chain release factor GTP-binding subunit ERF3A (Homo sapiens); experiment: Protac activity at CRBN/GSPT1 in human NB-4 cells assessed as induction of GSPT1 degradation at 0.001 to 1 uM incubated for 4 hrs by western blot analysis; type: cell-based; conditions: dose 0.001-1 µM
OCI-AML2 = experiment: Antiproliferative activity against human OCI-AML2 cells assessed as reduction in cell viability incubated for 72 hrs by cell titer glo assay; type: functional, cell-based; conditions: OCI-AML2, 72 h
MOLM-13 = experiment: Antiproliferative activity against human MOLM-13 cells assessed as reduction in cell viability incubated for 72 hrs by cell titer glo assay; type: functional, cell-based; conditions: MOLM-13, 72 h
KG-1 = experiment: Antiproliferative activity against human KG-1 cells assessed as reduction in cell viability incubated for 72 hrs by cell titer glo assay; type: functional, cell-based; conditions: KG-1, 72 h
MV4-11 = experiment: Antiproliferative activity against human MV4-11 cells assessed as reduction in cell viability incubated for 72 hrs by cell titer glo assay; type: functional, cell-based; conditions: MV4-11, 72 h
U-937 = experiment: Antiproliferative activity against human U937 cells assessed as reduction in cell viability incubated for 72 hrs by cell titer glo assay; type: functional, cell-based; conditions: U-937, 72 h
NB-4 = experiment: Antiproliferative activity against human NB4 cells assessed as reduction in cell viability incubated for 72 hrs by cell titer glo assay; type: functional, cell-based; conditions: NB-4, 72 h
HL-60 [43] = experiment: Antiproliferative activity against human HL-60 cells assessed as reduction in cell viability incubated for 72 hrs by cell titer glo assay; type: functional, cell-based; conditions: HL-60, 72 h
OCI-AML-3 = experiment: Antiproliferative activity against human OCI-AML3 cells assessed as reduction in cell viability incubated for 72 hrs by cell titer glo assay; type: functional, cell-based; conditions: OCI-AML-3, 72 h
KG-1a = experiment: Antiproliferative activity against human KG-1a cells assessed as reduction in cell viability incubated for 72 hrs by cell titer glo assay; type: functional, cell-based
Kasumi 1 = experiment: Antiproliferative activity against human Kasumi 1 cells assessed as reduction in cell viability incubated for 72 hrs by cell titer glo assay; type: functional, cell-based; conditions: Kasumi 1, 72 h
THLE-2 = experiment: Cytotoxicity against human THLE-2 cells assessed as cell viability incubated for 72 hrs by cell titer glo assay; type: cell-based; conditions: THLE-2, 72 h

O=C1CCC(N2Cc3cc(CNC(=O)C(F)(F)c4ccc(Cl)cc4)ccc3C2=O)C(=O)N1 (stereo not drawn)
MRT [1]: 0.24 h
inhibition in vivo at 5 mg/kg (HL-60 [2]): 54%
Activity [3]: Active
Activity [4]: 90%
clearance [5]: 6 mL/min/kg
clearance [6]: 67.9 mL/min/kg
Vd [7]: 1 L/kg
Emax [8]: 88%
inhibition [9]: > 50%
Vd [10]: 61.7 L
Activity [11]: inactive
inhibition in vivo at 2.5 mg/kg (HL-60 [12]): 71.5%
inhibition [13]: > 50%
inhibition (INH) [14]: Not Active
EC50 [15]: > 10000 nM
clearance [16]: 28.3 mL/min/kg
half-life [17]: 9.3 h
Activity [18]: Dose-dependent effect
Activity [19]: inactive
inhibition (Homo sapiens): inactive
Activity [20]: Active
IC50 [21]: 5300 nM
MRT [22]: 4 h
inhibition at 2.5 µM (CYP2C9): 41%
inhibition (INH) [23]: Not Active
Vd [24]: 1.1 L/kg
Vd [25]: 2.2 L/kg
Activity [26]: Non-Toxic
inhibition (INH) [27]: Not Active
inhibition (INH) [28]: Not Active
clearance [29]: 116 mL/min
Activity [30]: Active
MRT [31]: 1.3 h
inhibition (INH) [32]: Not Active
Activity [33]: Dose-dependent effect
inhibition (INH) [34]: Not Active
EC50 (Cereblon/Ikaros): > 10000 nM
Activity [35]: Active
Activity [36]: Active
inhibition (INH) [37]: Not Active
Activity [38]: 75%
EC50 (Bone marrow cell): 6 nM
inhibition (INH) [39]: Not Active
Activity [40]: Active
IC50 (Cytochrome P450 2C19): 1530 nM
Emax [41]: 51%
Activity [42]: Active

Cc1ccc(NC(=O)NCc2ccc3c(c2)CN(C2CCC(=O)NC2=O)C3=O)cc1Cl (stereo not drawn)
IC50 (OCI-AML2): 21 nM
IC50 (MOLM-13): 8 nM
IC50 (KG-1): 7 nM
IC50 (MV4-11): 5 nM
IC50 (U-937): 11 nM
IC50 (NB-4): 2 nM
IC50 (HL-60 [43]): 3 nM
IC50 (OCI-AML-3): 73 nM
IC50 (KG-1a): 8 nM
IC50 (Kasumi 1): 10 nM
IC50 (THLE-2): 11 nM
